The values that follow come from patent publication US4757153A, “Sulfide, sulfinyl and sulfone dipeptide amides” (G. D. Searle & Co., priority 1986, dated 1988).

In assay [1] the target is opiate receptors isolated from rat brain. The assay can be described thus: Opiate Binding Assay (displacement of 3H-Naloxone). To be noted: concentration inhibiting specific binding of 1 nM 3H-Naloxone to rat brain receptor membranes by 50%. As for the experimental part:
Opiate Binding Assay. The test compounds were evaluated for their ability to displace the binding of ^3 H-Naloxone to opiate receptors isolated from rat brain. Male rats [Crl: CD(SD)BR] obtained from Charles River Laboratories (Portage, MI) were sacrificed by cervical dislocation. A purified homogenate of receptor membranes was prepared from the brains according to the method described by Chang and Cuatrecasas. (K.-J. Chang and P. Cuatrecasas. Multiple Opiate Receptors: Enkephalins And Morphine Bind To Receptors Of Different Specificity. J. Biol. Chem. 254, 2610-2618 (1979).) The brains were homogenized in 10 volumes of 0.32M sucrose and centrifuged twice at 6,000xg for 15 minutes. Following centrifugation of the supernatants at 40,000xg for 30 minutes, the pellets were resuspended in 5 mM tris-HCl, and centrifuged at 6,000. The supernatant was centrifuged at 40,000xg. The resuspension in 5 mM Tris-HCl was repeated twice. The final pellet was resuspended in 2 volumes of 50 mM tris HCl (pH 7.4). The homogenate was assayed for protein content according to the method of Itzhaki and Gill (R. F. Itzhaki and D. M. Gill. A Micro-Biuret Method for Estimating Proteins. Anal. Biochem. 9, 401-410 (1964)).
The binding of the test compounds to the receptor membrane preparation was measured using a modification of the method of Pert and Snyder (C. B. Pert and S. H. Synder. Properties of Opiate-Receptor Binding in Rat Brain. Proc. Natl. Acad. Sci. 70, 2243-2247 (1973)). The receptor assay was run using final concentrations of 1 nM ^3 H-Naloxone and of tissue homogenate (0.5 mg/ml of homogenate protein. Levorphanol (1×10^-5 M) was used as the displacer for non-specific binding. Final concentration of the test compounds was 10^-5 M. The assay was run in 0.05M tris HCl (pH 7.4). Total assay volume was 1.0 ml.
Samples were incubated at 25° C. for 60 min., filtered over Whatman GF/C glass fiber filters, and rinsed twice with 4 ml washes of ice-cold buffer. The filters were air-dried at 50° C. for 30 min. After drying 10 mls of PCS was added to the vial and the radioactivity determined using a Tracor Analytic Mark III liquid scintillation counter with a counting efficiency of 48%.
The IC50 values, the concentration of the test compounds which inhibited ^3 H-Naloxone specific binding to the opiate receptor by 50%, were obtained from log-logit plots of concentration-response curves.
A general note: In a radioligand displacement assay an active substance lowers the binding of a labelled ligand.

Assay [2] concerns phenylbenzoquinone-induced writhing in mice. The assay can be described thus: Writhing assay (phenylbenzoquinone-induced writhing). Format: in vivo, mouse. To be noted: 30 min before phenylbenzoquinone i.p., active = writhes significantly less than saline group; for Writhing Mouse Oral: screening dose 10 mg/kg oral (intragastric); for Writhing Mouse Subc.: screening dose 10 mg/kg subcutaneous. The protocol: Writhing assay. Male Charles River albino mice (CD-1/HAM/1LR) weighing between 20 and 30 grams were used. Thirty minutes after subcutaneous or intragastric administration of the test compound (0.1 ml/10 gram body weight), 0.025% (w/v) phenylbenzoquinone was injected intraperitoneally (0.1 ml/10 gram body weight). Five minutes later, each mouse was placed in a large glass beaker and the number of writhes that occurred in the subsequent ten minutes is counted. A writhe consisted of dorsoflexion of the back, extension of the hindlimbs, and strong contraction of the abdominal musculature. The test compound was considered to have produced analgesia in a mouse if the number of writhes elicited by phenylbenzoquinone was equal to or less than one-half the median number of writhes recorded for the saline-treated group that day. The results were expressed as the number of mice (out of a possible ten) in which the test compound produced analgesia. […] If the initial test dose of 10 mg/kg inhibited writhing in greater than 6 of 10 mice, the effect of additional doses was evaluated and an ED50 value was calculated using a maximum likelihood function.
(In general: Writhing tests count abdominal constrictions after an irritant is injected.)

Assay [3] deals with brain opiate receptor sites. To be noted: partially purified brain opiate receptor sites; Bradberry et al. 1976; cited from earlier work.
Assay [4] relates to rat. To be noted: injected directly into the brain of the rat; Belluzi et al. 1976; cited from earlier work.

For the compound “2,6-dimethyl-D-tyrosyl-N-(3-phenylpropyl)-D-methioninamide, monohydrochloride [Example 15]”, the IC50 (in general, the midpoint of a concentration-inhibition curve) in assay [1] worked out at 160 nM. Moreover, in assay [2], the “Writhing Mouse Oral” value was “Inactive” and the “Writhing Mouse Subc.” value is on record as “Inactive”.

“2,6-dimethyl-L-tyrosyl-N-(3-phenylpropyl)-D-methioninamide, monohydrochloride [Example 14]” had an IC50 in assay [1] of 0.2 nM. Moreover, in assay [2], the “Writhing Mouse Oral” value was “Active” and the “Writhing Mouse Subc.” value is “Active”.

“2,6-dimethyl-L-tyrosyl-α-(methylsulfinyl)-N-(3-phenylpropyl)-D-α-aminobutanamide, monohydrochloride [Example 16]” gave a 50% inhibitory concentration (IC50) in assay [1] of 0.4 nM. For the same compound, in assay [2], the “Writhing Mouse Oral” value is on record as “Active” and the “Writhing Mouse Subc.” value was “Active”.

In turn, `Cc1cc(O)cc(C)c1C[C@@H](N)C(=O)N[C@H](CC[S+](C)[O-])C(=O)NCCCc1ccccc1.Cl` (stereo partly drawn) [Example 17, 2,6-dimethyl-D-tyrosyl-γ-(methylsulfinyl)-N-(3-phenylpropyl)-D-α-aminobutanamide, monohydrochloride] gave a 50% inhibitory concentration (IC50) in assay [1] of 96 nM. Further, in assay [2], the “Writhing Mouse Oral” value is recorded as “Inactive” and the “Writhing Mouse Subc.” value was “Inactive”.

“L-tyrosyl-N-(3-phenylpropyl)-D-methioninamide, monohydrochloride [Example 4]”: the IC50 in assay [1] amounted to 16 nM. In assay [2], the “Writhing Mouse Oral” value is recorded as “Inactive” and the “Writhing Mouse Subc.” value is reported as “Inactive”.

In assay [1], “L-tyrosyl-γ-(methylsulfonyl)-N-(3-phenylpropyl)-DL-α-aminobutanamide, monohydrochloride [Example 8]” had a concentration for half-maximal inhibition (IC50) of 9.6 nM. In addition, in assay [2], the “Writhing Mouse Oral” value was “Inactive” and the “Writhing Mouse Subc.” value is “Inactive”.

With methionine enkephalin, the “binding to brain opiate receptor sites” value in assay [3] is recorded as “binds stereospecifically”. Also, the analgesic activity entry in assay [4] was “weak, fleeting analgesic activity”.
